Key:
[1] = tested on: Oxidatively competent cells; assay: SYTOX cell death assay in oxidatively competent cells treated with antimycin A; type: cell-based; conditions: for cell death when tested individually: highest concentration tested
Method: Oxidatively competent cells are prepared as described in Example 1. and Example 2.A and are seeded onto 96-well plates at 1×10^3/well or 2.5×10^3/well as passage 15. The cells are grown in DMEM with 10% FBS and 1.5 g/L sodium bicarbonate for 24 or 48 hours to reach 85% confluence. The cells are washed once with HBSS and then 100 μl of HBSS containing different concentration of AA (Sigma, Cat #A 8674) is added to the cells. AA is dissolved in DMSO to make a stock solution of 50 mM, then diluted with HBSS to 25, 12.5, 6.25, 3.125, and 1.56 μM for dose-response curves. The cells, with or without AA, are incubated at 37° C. in a 5% CO2 humidified incubator for 1 to 5 hours. The concentration of AA is chosen to induce 75% or 100% cell death as a screening dose to test the effect of agents to protect against AA- induced cell toxicity. The concentration of agents used for screening will be dependent upon the agents. Certain control groups contain 100 μl of HBSS only.
(§1) SYTOX Green nucleic acid stain is a high-affinity nucleic acid stain that easily penetrates cells with a compromised plasma membrane but will not cross the membrane of live cells. The nucleic acids of dead cells fluoresce bright green at 524 nm when excited with the 488 nm spectral source or with any other 450-500 nm source. […] In the cell viability assay chemical ischemia is created in cells and then cells are incubated with the SYTOX dye. The compound antimycin is used to simulate ischemia at the same time as stimulating the cells with forskolin. […] The assay is performed on cells grown in 96-well format allowing high throughput screening of compounds.
(§2) Compound(s) are mixed with the 1 μM SYTOX working solution and added to the washed cell culture wells. Fluorescence is measured at designated time points (488 nm excitation and 530 nm emission). All of the sample readings subtract the background readings, which is cell-free wells only containing HBSS buffer with SYTOX green dye. The data is compared to non-treated cells (control) and is expressed as mean±S.D. from 4 culture wells. SYTOX Green fluorescence units obtained from each group are corrected for basal fluorescence (cell-free wells with only HBSS and fluorescence reagent). Data are represented as mean±SD. A paired t-test is performed comparing treated groups (Toxin+Agent) with non-treated groups (Toxin only) after subtracting the control groups (HBSS only) for each data set. Comparisons among groups are statistically evaluated by two-tailed t-test (Graphpad Prism Software, version 2.0). Differences are considered significant at P<0.05.
Oxidatively competent cells were treated simultaneously with hesperetin, chrysin and 100 nM antimycin A2.C. The cells were treated with various low concentrations of hesperetin and various concentrations of chrysin (Sigma Chemical Co., cat. #C3018). Hesperetin, chrysin and antimycin A were mixed together before treating the cells. Cell viability was measured at time points up to 5 hours using SYTOX, as described in Example 2.F.
In experiments carried out in support of the invention, various concentrations of diosmin and alpha-tocopherol were tested for synergistic ability to ameliorate disruption of energy metabolism secondary to stress. Oxidatively competent cells were treated simultaneously with diosmin, alpha-tocopherol and antimycin A2.C. The cells were treated with various low concentrations of diosmin (Sigma Chemical Co., cat. #D3525) and various low concentrations of (+/−) alpha-tocopherol. Diosmin, alpha-tocopherol and antimycin were mixed together before treating cells. Cell viability was measured 4 hours after treatment using SYTOX. […] Likewise, the combination of disomin (11-100 μM) with 1.1 μg/ml (+/−) alpha tocopherol was synergistic. […] Diosmin alone provided no protection at a concentration of 100 μM. […] A combination of 100 μM diosmin and 11 μg/ml (+/−) alpha tocopherol was also synergistic. […]

GCL1 cells = assay: SYTOX cell death assay in GCL1 cells treated with antimycin A (chemical ischemia); type: cell-based, rat hepatoma cells (fao) / human fibroblasts (W138) hybrid; conditions: for reduction in cell death: control 82.9%
Description: At greater than 80% confluence, more than 80% of the cells participate in forming one or more phaselucent, spherical structures that are located between cells, termed bile canicular-like spaces. In contrast to the majority of cell lines maintained in culture which are fermentative, GCL1 cells, when at their maximal density and polarity, are highly oxidative (i.e., they can be readily killed by inhibitors of oxidative phosphorylation or electron transport uncouplers). […] These cells are amenable to use in high throughput screening (HTS) technology.
The cells, with or without AA, are incubated at 37° C. in a 5% CO2 humidified incubator for 1 to 5 hours. […] The concentration of agents used for screening will be dependent upon the agents. Certain control groups contain 100 μl of HBSS only.
as §1
Aliquot at 100 μl. This 10 mM stock is then diluted to 1 mM with DMSO and aliquoted at 25 μL. Both the 10 mM and the 1 mM are stored at −20° C. until use. […] Aliquot at 100 μl and store at −20° C. until use. iv.) HBSS-SYTOX-FORSKOLIN-ANTIMYCIN (H-S-F-A) solution: H-S-F-A solution is made up fresh prior to each assay in sterile 175 ml or 225 ml Falcon bottles. […]
Cells are grown in 96-well black plates (with or without clear bottoms) at a density of 1000 cells per well for 24 hours. The necessary number of 96-well plates containing the specific cell type are obtained and placed in the laminar flow safety cabinet. A sterile microtiter basin is filled with the appropriate volume of pre-warmed 1×HBSS. Using aseptic technique and an 8-channel aspirator, the media is carefully removed from the cells and replaced with 200 μl of 1×HBSS. This is done as quickly as possible to prevent the cells drying out. The plates are then placed in the humidified 37° C. incubators of the Biomek 2000 Side Loader. Four plates are washed at a time so as to minimize the time that the cells are sitting in 1×HBSS prior to addition of the H-S-A-compound test solution.
as §2
Hesperetin, diosmin, luteolin and quercetin were tested individually for their ability to counteract disruptions of normal energy metabolism. Flavonoids were commercially obtained, generally from Sigma Chemical Co., St. Louis, Mo., and/or Aldrich Chemical Co., Milwaukee, Wis.

[2] = cited from earlier work; for abnormalities observed for a week: administered orally to mice at 100 mg/kg (U.S. Pat. No. 5,650,433)
[3] = flavonoid 25 μM, antimycin A 100 nM, 4 hours
[4] = flavonoid 50 μM, antimycin A 100 nM, 4 hours
[5] = flavonoid 100 μM, antimycin A 100 nM, 4 hours
[6] = flavonoid 200 μM, antimycin A 100 nM, 4 hours
[7] = flavonoid 400 μM, antimycin A 100 nM, 4 hours

Compound: Cc1c(C)c2c(c(C)c1O)CCC(C)(CCCC(C)CCCC(C)CCCC(C)C)O2 (racemic) [(+/−) alpha-tocopherol, 2,5,7,8-tetramethyl-2-(4′,8′,12′-trimethyltridecyl)-6-chromanol]
- protection ([1]; 10 μg/ml (+/−) alpha-tocopherol by itself): about 15%
- cell death when tested individually [1]: over half of the cells died

Compound: Cc1c(C)c2c(c(C)c1O)CC[C@@](C)(CCC[C@H](C)CCC[C@H](C)CCCC(C)C)O2 (relative stereo) [alpha-tocopherol, [2R-2R*(4R*,8R*)]-3,4-dihydro-2,5,7,8-tetramethyl-2-(4,8,12-trimethyltridecyl)-2H-1-benzopyran-6-ol]
- cell death when tested individually [1]: about half of the cells died

Compound: COc1ccc(-c2cc(=O)c3c(O)cc(O[C@@H]4O[C@H](CO[C@@H]5O[C@@H](C)[C@H](O)[C@@H](O)[C@H]5O)[C@@H](O)[C@H](O)[C@H]4O)cc3o2)cc1O [Diosmin, reference compound]
- protection ([1]; diosmin 3.3-100 μM by itself, 4 hours): not protective by itself
- protection ([1]; diosmin alone 100 μM): no protection
- protection ([1]; diosmin by itself 33-100 μM): not effective
- protective effect (GCL1 cells; concentrations less than 400 μM): ineffective
- Cell Death (GCL1 cells; [3]): 84.1% ± 1.6
- Cell Death (GCL1 cells; [4]): 84.9% ± 1.6
- Cell Death (GCL1 cells; [5]): 85.3% ± 0.6
- Cell Death (GCL1 cells; [6]): 85.2% ± 2.0
- Cell Death (GCL1 cells; [7]): 82.5% ± 2.6

Compound: O=c1cc(-c2ccc(O)c(O)c2)oc2cc(O)cc(O)c12 [Luteolin, 2-(3,4-Dihydroxyphenyl)-5,7-dihydroxy-4H-1-benzopyran-4-one]
- abnormalities observed for a week [2]: the same results were reported
- cytoprotective activity (GCL1 cells; concentrations of about 60 μM and above): exhibited cytoprotective activity
- Cell Death (GCL1 cells; flavonoid 15.6 μM, antimycin A 100 nM, 4 hours): 78.0% ± 0.9
- Cell Death (GCL1 cells; flavonoid 31.25 μM, antimycin A 100 nM, 4 hours): 74.5% ± 1.2
- Cell Death (GCL1 cells; flavonoid 62.5 μM, antimycin A 100 nM, 4 hours): 69.0% ± 2.2
- Cell Death (GCL1 cells; flavonoid 125 μM, antimycin A 100 nM, 4 hours): 53.7% ± 5.4
- Cell Death (GCL1 cells; flavonoid 250 μM, antimycin A 100 nM, 4 hours): 33.4% ± 0.6

Compound: O=c1c(O)c(-c2ccc(O)c(O)c2)oc2cc(O)cc(O)c12 [Quercetin, 2-(3,4-Dihydroxyphenyl)-3,5,7-trihydroxy-4H-1-benzopyran-4-one]
- protective activity (GCL1 cells; concentrations of 25 μM and above): protective activity is apparent
- Cell Death (GCL1 cells; [3]): 68.1% ± 1.7
- Cell Death (GCL1 cells; [4]): 57.1% ± 2.4
- Cell Death (GCL1 cells; [5]): 22.0% ± 2.2
- Cell Death (GCL1 cells; [6]): 0.0% ± 0.9
- Cell Death (GCL1 cells; [7]): 1.0% ± 0.5

Compound: Nc1ncnc2c1ncn2[C@@H]1O[C@H](CO)[C@@H](O)[C@H]1O [adenosine, 9-β-D-ribofuranosyl-9H-purin-6-amine]
- protection (GCL1 cells; 11 μM adenosine alone): 17.9%

Compound: COc1ccc(-c2coc3cc(O)cc(O)c3c2=O)cc1 [biochanin A, 5,7-dihydroxy-4′-methoxyiso-flavone]
- cell death when tested individually [1]: about half of the cells died

Compound: C[N+](C)(C)CC(O)CC(=O)[O-].O=C(O)C(O)C(O)C(=O)O (centres unmarked) [carnitine tartate, carnitine tartrate]
- Cell Death (GCL1 cells; 10 mM carnitine tartrate alone, 4 hours, control 97.4%): 59.5%

Compound: O=c1cc(-c2ccccc2)oc2cc(O)cc(O)c12 [chrysin, 5,7-dihydroxy-2-phenyl-4H-1-benzopyran-4-one]
- Cell Death ([1]; 60 μM chrysin alone, control 72.9%): 50.1%

Compound: O=c1c(-c2ccc(O)cc2)coc2cc(O)ccc12 [daidzein, 7-hydroxy-3-(4-hydroxyphenyl)-4H-1-benzopyran-4-one]
- cell death when tested individually [1]: over half of the cells died

Compound: Cc1c(O)cc2c(c1C)O[C@](C)(CCC[C@H](C)CCC[C@H](C)CCCC(C)C)CC2 [gamma-tocopherol, 3,4-dihydro-2,7,8-trimethyl-2-(4,8,12-trimethyltridecyl)-2H-1-benzyopyran-6-ol]
- protection ([1]; gamma-tocopherol 0.03-0.3 μg/ml by itself): not protective by itself

Compound: NCC(=O)O [glycine, aminoacetic acid]
- protection (GCL1 cells; 100 μM glycine alone, 4 hours, control cell death 82.1%): 40.8%

Compound: COc1ccc([C@@H]2CC(=O)c3c(O)cc(O[C@@H]4O[C@H](CO[C@@H]5O[C@@H](C)[C@H](O)[C@@H](O)[C@H]5O)[C@@H](O)[C@H](O)[C@H]4O)cc3O2)cc1O [hesperidin, (S)-7-[[6O-(6-Deoxy-α-L-mannopyranosyl)-β-D-glucopyranosyl]oxy]-2,3-dihydro-5-hydroxy-2-(3-hydroxy-4-methoxyphenyl)-4H-1-benzopyran-4-one]
- abnormalities observed for a week [2]: the same results were reported
- toxicity ([2]; orally administered to a mouse at 1000 mg/kg (U.S. Pat. No. 5,763,414)): no toxicity
- effects on liver function ([2]; tests using mice): no adverse effects on liver function
- toxicity or mitogenicity ([2]; tests using mice): little toxicity or mitogenicity

Compound: O=C(CO)[C@H](O)[C@H](O)CO [ribulose]
- reduction in cell death (GCL1 cells; 1.25 mM ribulose by itself, 4 hours): 4.4%
- reduction in cell death (GCL1 cells; 10 mM ribulose alone, 4 hours): 26.5%

Source: US6528042B1, “Compositions of flavonoids for use as cytoprotectants and methods of making and using them” (Galileo Laboratories, Inc., priority 1999, dated 2003)
